Experimental data published in paper PMC4281096 (Journal of Medicinal Chemistry, 2014).

Columns and labels:
[1] = test system: SJSA-1 osteosarcoma tumor cell line
[2] = 17D 200 mg/kg or 31 100 mg/kg, daily oral 14 days
[3] = ref [24], cited from earlier work; for isomerization after 6 days: acetonitrile/water solution
[4] = biological target: recombinant human His-tagged MDM2 protein (residues 1–118) (Homo sapiens, UniProt Q00987); settings: in words
[5] = test system: SJSA-1 osteosarcoma xenografts; settings: 100 mg/kg, orally daily for 14 days
[6] = test system: p53 activation and apoptosis in SJSA-1 tumor tissue; settings: mouse, in vivo, po, 100 mg/kg

Chain of recombinant human His-tagged MDM2 protein (residues 1–118) (Q00987 1-118): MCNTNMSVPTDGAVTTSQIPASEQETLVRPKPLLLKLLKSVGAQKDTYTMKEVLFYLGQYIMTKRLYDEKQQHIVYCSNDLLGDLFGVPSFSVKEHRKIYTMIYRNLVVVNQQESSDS

With `C[C@]1(O)C[C@@H](NC(=O)[C@@H]2NC3(CCC3)[C@]3(C(=O)Nc4cc(Cl)ccc43)[C@H]2c2cccc(Cl)c2F)C1` [Compound 28C] the “IC50 values in inhibition of cell growth” value [1] was “low micromolar range”.

With `CC1(C)N[C@@H](C(=O)N[C@H]2CC[C@H](O)CC2)[C@H](c2cccc(Cl)c2F)[C@]12C(=O)Nc1cc(Cl)ccc12` [Compound 12D, (3R,4′S,5′R)-6-Chloro-4′-(3-chloro-2-fluorophenyl)-N-((1R,4R)-4-hydroxycyclohexyl)-2′,2′-dimethyl-2-oxospiro[indoline-3,3′-pyrrolidine]-5′-carboxamide] the “IC50 values in inhibition of cell growth” value [1] was “low micromolar range”.

With `O=C(NCC[C@H](O)CO)[C@@H]1NC2(CCC2)[C@]2(C(=O)Nc3cc(Cl)ccc32)[C@H]1c1cccc(Cl)c1F` [Compound 25C] the “IC50 values in inhibition of cell growth” value [1] was “low micromolar range”.

In the case of `O=C(NCC[C@H](O)CO)[C@@H]1NC2(CCC2)[C@@]2(C(=O)Nc3cc(Cl)ccc32)[C@H]1c1cccc(Cl)c1F` [Compound 25D], the “IC50 values in inhibition of cell growth” value [1] is reported as “low micromolar range”.

For `O=C(N[C@H]1CC[C@H](O)CC1)[C@@H]1NC2(CCC2)[C@]2(C(=O)Nc3cc(Cl)ccc32)[C@H]1c1cccc(Cl)c1F` [Compound 15C, (3′S,4′S,5′R)-6″-Chloro-4′-(3-chloro-2-fluorophenyl)-N-((1R,4R)-4-hydroxycyclohexyl)-2″-oxodispiro[cyclobutane-1,2′-pyrrolidine-3′,3″-indoline]-5′-carboxamide], the “IC50 values in inhibition of cell growth” value [1] was “low micromolar range”.

For `O=C(NCC[C@H](O)CO)[C@@H]1NC2(CCCCC2)[C@@]2(C(=O)Nc3cc(Cl)ccc32)[C@H]1c1cccc(Cl)c1F` [Compound 26D], the “IC50 values in inhibition of cell growth” value [1] was “sub-micromolar”.

In the case of `O=C(N[C@H]1CC[C@H](O)CC1)[C@@H]1NC2(CCCCC2)[C@@]2(C(=O)Nc3cc(Cl)ccc32)[C@H]1c1cccc(Cl)c1F` [Compound 17D, (3′R,4′S,5′R)-6″-Chloro-4′-(3-chloro-2-fluorophenyl)-N-((1R,4R)-4-hydroxycyclohexyl)-2″-oxodispiro[cyclohexane-1,2′-pyrrolidine-3′,3″-indoline]-5′-carboxamide], the “IC50 values in inhibition of cell growth” value [1] is reported as “sub-micromolar”, the “signs of toxicity during or after the treatment” value [2] is reported as “did not show any signs of toxicity” and the weight loss [2] is reported as “no weight loss”.

With `O=C(N[C@H]1CC[C@H](O)CC1)[C@@H]1NC2(CCCC2)[C@@]2(C(=O)Nc3cc(Cl)ccc32)[C@H]1c1cccc(Cl)c1F` [Compound 16D, (3′R,4′S,5′R)-6″-Chloro-4′-(3-chloro-2-fluorophenyl)-N-((1R,4R)-4-hydroxycyclohexyl)-2″-oxodispiro[cyclopentane-1,2′-pyrrolidine-3′,3″-indoline]-5′-carboxamide] the “IC50 values in inhibition of cell growth” value [1] was “sub-micromolar”.

For `O=C(NCCN1CCOCC1)[C@@H]1NC2(CCCCC2)[C@@]2(C(=O)Nc3cc(Cl)ccc32)[C@H]1c1cccc(Cl)c1F` [Compound 23D], the “IC50 values in inhibition of cell growth” value [1] was “sub-micromolar”.

For `CC(C)(C)C[C@@H]1N[C@@H](C(=O)NCC[C@H](O)CO)[C@H](c2cccc(Cl)c2F)[C@]12C(=O)Nc1cc(Cl)ccc12` [MI-147], the “isomerization after 6 days” value [3] is listed as 8.6%.

With `N[C@@H](C(=O)N[C@H]1CC[C@H](O)CC1)[C@H](c1cccc(Cl)c1F)C1C(=O)Nc2cc(Cl)ccc21` (stereo partly drawn) [Compound 20] the “binding to MDM2” value [4] was “does not bind to MDM2”.

In the case of `CCCC1(CCC)N[C@@H](C(=O)N[C@H]2CC[C@H](O)CC2)[C@H](c2cccc(Cl)c2F)[C@]12C(=O)Nc1cc(Cl)ccc12` [Compound 14D, (3R,4′S,5′R)-6-Chloro-4′-(3-chloro-2-fluorophenyl)-N-((1r,4R)-4-hydroxycyclohexyl)-2-oxo-2′,2′-di-n-propylspiro[indoline-3,3′-pyrrolidine]-5′-carboxamide], the “IC50 values in inhibition of cell growth” value [1] is reported as “low micromolar range”.

In the case of `CC(C)(C)C[C@@H]1N[C@@H](C(=O)N[C@H]2C[C@@](C)(O)C2)[C@H](c2cccc(Cl)c2F)[C@]12C(=O)Nc1cc(Cl)ccc12` [Compound 3], the “% composition of compound in 1:1 CH3CN/H2O, 0 h” value ([3]; 0 h) is given as 100% and the “isomerization after 6 days” value [3] is given as 2.3%.

For `C[C@]1(O)C[C@@H](NC(=O)[C@@H]2NC3(CCCCC3)[C@@]3(C(=O)Nc4cc(Cl)ccc43)[C@H]2c2cccc(Cl)c2F)C1` [Compound 29D], the “IC50 values in inhibition of cell growth” value [1] was “sub-micromolar”.

For `CC(C)(C)C[C@@H]1N[C@@H](C(=O)NCCN2CCOCC2)[C@H](c2cccc(Cl)c2F)[C@]12C(=O)Nc1cc(Cl)ccc12` [MI-63], the “isomerization after 6 days” value [3] is given as 17.3%.

In the case of `O=C(NCCN1CCOCC1)[C@@H]1NC2(CCC2)[C@@]2(C(=O)Nc3cc(Cl)ccc32)[C@H]1c1cccc(Cl)c1F` [Compound 22D], the “IC50 values in inhibition of cell growth” value [1] is reported as “low micromolar range”.

For `O=C(NCCN1CCOCC1)[C@@H]1NC2(CCC2)[C@]2(C(=O)Nc3cc(Cl)ccc32)[C@H]1c1cccc(Cl)c1F` [Compound 22C], the “IC50 values in inhibition of cell growth” value [1] was “low micromolar range”.

In the case of `O=C(N[C@H]1CC[C@H](O)CC1)[C@@H]1NC2(CCC2)[C@@]2(C(=O)Nc3cc(Cl)ccc32)[C@H]1c1cccc(Cl)c1F` [Compound 15D, (3′R,4′S,5′R)-6″-Chloro-4′-(3-chloro-2-fluorophenyl)-N-((1R,4R)-4-hydroxycyclohexyl)-2″-oxodispiro[cyclobutane-1,2′-pyrrolidine-3′,3″-indoline]-5′-carboxamide], the “IC50 values in inhibition of cell growth” value [1] is reported as “low micromolar range”.

For `O=C(O)c1ccc(NC(=O)[C@@H]2NC3(CCCCC3)[C@@]3(C(=O)Nc4cc(Cl)ccc43)[C@H]2c2cccc(Cl)c2F)cc1` [Compound 31, 4-((3′R,4′S,5′R)-6″-Chloro-4′-(3-chloro-2-fluorophenyl)-2″-oxodispiro[cyclohexane-1,2′-pyrrolidine-3′,3″-indoline]-5′-carboxamido)benzoic Acid], the “mice with no detectable tumor” value ([5]; day 25, of eight mice) was “three”, the tumor regression ([5]; in words) was “achieved significant tumor regression” and the “signs of toxicity during or after the treatment” value [2] was “did not show any signs of toxicity”. The weight loss [2] was “no weight loss”, the “PARP cleavage (apoptosis induction) in tumor tissue” value [6] was “robust cleavage of PARP” and the “p53 activation (accumulation of p53, MDM2 and p21 proteins) in tumor tissue” value [6] was “effectively activated p53”.
